The test system of experiment [1] is Plasmodium yoelii NS (chloroquine-resistant strain). Briefly: Oral administration test of polysaccharide fraction in combination with antimalarial agent in rodent malaria parasite (chloroquine-resistant strain) infection model. The experiment is classed as in vivo, Plasmodium yoelii NS in ICR mice. The conditions noted are these: 2×10^4 infected erythrocytes; AN 3 mg/kg/day oral four times; SCE-4 600 mg/kg/day oral from 7 days before infection; versus control group (Dunnett's test). The protocol:
A procedure was performed in the same manner as in Example 4, except that the number of P. yoelii NS-infected erythrocytes intravenously injected to the tail vein was changed from 2×10^6 cells to 2×10^4 cells.
SCE-4 and AN were orally administered to ICR mice each day in a dose of 500 μL/mouse using a feeding needle. A dosage of SCE-4 was 600 mg/kg/day, and AN was dissolved in a 10% dimethylsulfoxide (DMSO) aqueous solution containing 0.5% Tween 80 and administered in a dosage of 3 mg/kg/day. The administration of SCE-4 was started 7 days before parasite infection and continued even after the plasmodium infection. The administration of AN was started 2 hours after the parasite infection and continued until Day 3 after the plasmodium infection (four times in total). In addition, SCE-4 was administered 3 hours or more after the administration of AN.
To a control group, water and a 10% DMSO aqueous solution containing 0.5% Tween 80 were orally administered, and to AN3 groups, water and a 10% DMSO aqueous solution of AN containing 0.5% Tween 80 were orally administered, and to SCE-4+AN3 groups, an SCE-4 aqueous solution and a 10% DMSO aqueous solution of AN containing 0.5% Tween 80 were orally administered.
Calculation was performed in the same manner as in Example 3.

Experiment [2] has as its system IL-6 production in mouse Peyer's patch cells. Briefly: IL-6 production induction test in Peyer's patch cell culture (ELISA). The conditions noted are these: Example 2, FIG. 4; sample untreated, versus control. It is filed as cell-based, C3H/HeJ mouse. The protocol: To a 25 mM acetate buffer (pH 4.5, 1 mg/mL) solution of the α-glucan fraction (1.5 mg) or the heteroglycan fraction (1.5 mg) were added exo-α-L-arabinofuranosidase (20 μL), exo-β-D-(1→3)-galactanase (20 μL), and endo-β-D-(1→4)-galactanase (5 μL), followed by enzyme reaction under conditions of 37° C. for 2 days. The obtained digest was heat-treated for 30 seconds in a boiling water bath to deactivate the enzyme. To a half of this enzyme reaction liquid (shown as “1,3/1,4-galactanase” in FIG. 4) was further added dextranase (0.25 units), followed by incubation for 2 days at 37° C., and subsequently, the enzyme was deactivated under the same conditions as the above to obtain an enzyme reaction liquid (shown as “dextranase” in FIG. 4). These reaction liquids were preserved at −20° C. until use. Preparation and culture of mouse Peyer's patch cells were performed in the same manner as in Test Example 1. An anti-mouse IL-6 primary antibody diluted to 1 μg/mL with a 50 mM carbonate-bicarbonate buffer (pH 9.6) (100 μL/well) was dispensed into an ELISA plate (Immuno-Maxisorp, Nunc) and incubated at 4° C. overnight. […] The developed yellow color was measured using a microplate reader (Multiskan JX, Thermo Electron Corp.) (measurement wavelength; 405 nm, blank wavelength; 492 nm).
(In general: An ELISA detects its analyte on a solid surface through an enzyme-linked reagent.)

On to `C[C@H]1[C@H](OC(=O)CCC(=O)O)O[C@@H]2O[C@@]3(C)CC[C@H]4[C@H](C)CC[C@@H]1[C@@]24OO3` [AN, artesunate], for which the “infection rate of erythrocytes (Parasitemia), Day 4 and Day 5” value in experiment [1] is “the infection rate significantly decreased on Day 4 and Day 5 as compared with the control group”.

Consider dextran, for which the “amount of IL-6 production” value in experiment [2] is “no change in the amount of IL-6 production was observed”.

The values are drawn from patent US9737558B2, “Peyer's patch activator” (priority 2012, dated 2017).
